Earlier results, collected in PubChem BioAssay AID1259409 (Chemical Carcinogenesis Research Information System (CCRIS), 2018).

System: rodent chemically induced tumor inhibition, incidence and multiplicity
Experiment: CCRIS tumor inhibitor studies
Settings: Dose [Inhibitor]: 0, Route [Inhibitor]: ORAL

## C[C@]12CC[C@H](O)CC1=CC[C@@H]1[C@@H]2CC[C@]2(C)C(=O)CC[C@@H]12
Carcinogen: N-BUTYL-N-(4-HYDROXYBUTYL)NITROSAMINE, 3817-11-6, 0.6% IN DIET BEGINNING 3 D POST CARCINOGEN TREATMENT AND CONTINUING FOR 32 WK (STUDY DURATION: 36 WK), Species: RAT, Strain/Sex: F344/MALE, Target Tissue: Type of Lesion: URINARY BLADDER: PAPILLOMA, Dose [Carcinogen]: 0.05% IN DRINKING WATER FOR 4 WK, Promoter: BUTYLATED HYDROXYANISOLE, 25013-16-5
  tumour outcome (control, treated, inhibition, significance): 12/15 (80%), 6/15 (40%), 50%, p<0.05
Carcinogen: N-METHYL-N'-NITRO-N-NITROSOGUANIDINE, 70-25-7, 55 PPM IN DIET FOR 6 MO BEGINNING 3 MO POST CARCINOGEN TREATMENT (STUDY DURATION: 9 MO), Species: FISH, Strain/Sex: RAINBOW TROUT/MALE,FEMALE, Target Tissue: Type of Lesion: STOMACH: TUMOR, Dose [Carcinogen]: 35 PPM IN WATER FOR 30 MIN ONCE, Promoter: NONE USED
  tumour outcome (control, treated, inhibition, significance): 38%, 34%, 11%, not significant
Carcinogen: N-METHYL-N'-NITRO-N-NITROSOGUANIDINE, 70-25-7, 55 PPM IN DIET FOR 6 MO BEGINNING 3 MO POST CARCINOGEN TREATMENT (STUDY DURATION: 9 MO), Species: FISH, Strain/Sex: RAINBOW TROUT/MALE,FEMALE, Target Tissue: Type of Lesion: SWIN BLADDER: TUMOR, Dose [Carcinogen]: 35 PPM IN WATER FOR 30 MIN ONCE, Promoter: NONE USED
  tumour outcome (control, treated, inhibition, significance): 13%, 3%, 77%, p<0.05
Carcinogen: N-METHYL-N'-NITRO-N-NITROSOGUANIDINE, 70-25-7, 111 PPM IN DIET FOR 6 MO BEGINNING 3 MO POST CARCINOGEN TREATMENT (STUDY DURATION: 9 MO), Species: FISH, Strain/Sex: RAINBOW TROUT/MALE,FEMALE, Target Tissue: Type of Lesion: STOMACH: TUMOR, Dose [Carcinogen]: 35 PPM IN WATER FOR 30 MIN ONCE, Promoter: NONE USED
  tumour outcome (control, treated, inhibition, significance): 38%, 27%, 29%, not significant
Carcinogen: N-METHYL-N'-NITRO-N-NITROSOGUANIDINE, 70-25-7, 111 PPM IN DIET FOR 6 MO BEGINNING 3 MO POST CARCINOGEN TREATMENT (STUDY DURATION: 9 MO), Species: FISH, Strain/Sex: RAINBOW TROUT/MALE,FEMALE, Target Tissue: Type of Lesion: SWIM BLADDER: TUMOR, Dose [Carcinogen]: 35 PPM IN WATER FOR 30 MIN ONCE, Promoter: NONE USED
  tumour outcome (control, treated, inhibition, significance): 13%, 3%, 77%, p<0.05
Carcinogen: N-METHYL-N'-NITRO-N-NITROSOGUANIDINE, 70-25-7, 222 PPM IN DIET FOR 6 MO BEGINNING 3 MO POST CARCINOGEN TREATMENT (STUDY DURATION: 9 MO), Species: FISH, Strain/Sex: RAINBOW TROUT/MALE,FEMALE, Target Tissue: Type of Lesion: STOMACH: TUMOR, Dose [Carcinogen]: 35 PPM IN WATER FOR 30 MIN ONCE, Promoter: NONE USED
  tumour outcome (control, treated, inhibition, significance): 38%, 31%, 18%, not significant
Carcinogen: N-METHYL-N'-NITRO-N-NITROSOGUANIDINE, 70-25-7, 222 PPM IN DIET FOR 6 MO BEGINNING 3 MO POST CARCINOGEN TREATMENT (STUDY DURATION: 9 MO), Species: FISH, Strain/Sex: RAINBOW TROUT/MALE,FEMALE, Target Tissue: Type of Lesion: SWIM BLADDER: TUMOR, Dose [Carcinogen]: 35 PPM IN WATER FOR 30 MIN ONCE, Promoter: NONE USED
  tumour outcome (control, treated, inhibition, significance): 13%, 3%, 77%, p<0.05
Carcinogen: N-METHYL-N'-NITRO-N-NITROSOGUANIDINE, 70-25-7, 444 PPM IN DIET FOR 6 MO BEGINNING 3 MO POST CARCINOGEN TREATMENT (STUDY DURATION: 9 MO), Species: FISH, Strain/Sex: RAINBOW TROUT/MALE,FEMALE, Target Tissue: Type of Lesion: STOMACH: TUMOR, Dose [Carcinogen]: 35 PPM IN WATER FOR 30 MIN ONCE, Promoter: NONE USED
  tumour outcome (control, treated, inhibition, significance): 38%, 36%, 5%, not significant
Carcinogen: N-METHYL-N'-NITRO-N-NITROSOGUANIDINE, 70-25-7, 444 PPM IN DIET FOR 6 MO BEGINNING 3 MO POST CARCINOGEN TREATMENT (STUDY DURATION: 9 MO), Species: FISH, Strain/Sex: RAINBOW TROUT/MALE,FEMALE, Target Tissue: Type of Lesion: SWIM BLADDER: TUMOR, Dose [Carcinogen]: 35 PPM IN WATER FOR 30 MIN ONCE, Promoter: NONE USED
  tumour outcome (control, treated, inhibition, significance): 13%, 8%, 38%, not significant
Carcinogen: N-METHYL-N'-NITRO-N-NITROSOGUANIDINE, 70-25-7, 888 PPM IN DIET FOR 6 MO BEGINNING 3 MO POST CARCINOGEN TREATMENT (STUDY DURATION: 9 MO), Species: FISH, Strain/Sex: RAINBOW TROUT/MALE,FEMALE, Target Tissue: Type of Lesion: STOMACH: TUMOR, Dose [Carcinogen]: 35 PPM IN WATER FOR 30 MIN ONCE, Promoter: NONE USED
  tumour outcome (control, treated, inhibition, significance): 38%, 26%, 32%, not significant
Carcinogen: N-METHYL-N'-NITRO-N-NITROSOGUANIDINE, 70-25-7, 888 PPM IN DIET FOR 6 MO BEGINNING 3 MO POST CARCINOGEN TREATMENT (STUDY DURATION: 9 MO), Species: FISH, Strain/Sex: RAINBOW TROUT/MALE,FEMALE, Target Tissue: Type of Lesion: SWIM BLADDER: TUMOR, Dose [Carcinogen]: 35 PPM IN WATER FOR 30 MIN ONCE, Promoter: NONE USED
  tumour outcome (control, treated, inhibition, significance): 13%, 6%, 54%, not significant
Carcinogen: N-METHYL-N-NITROSOUREA, 684-93-5, 0.1% IN DIET FOR DURATION OF STUDY BEGINNING 1 WK PRIOR TO CARCINOGEN DOSE (STUDY DURATION: 187 D), Species: RAT, Strain/Sex: SPRAGUE-DAWLEY/FEMALE, Target Tissue: Type of Lesion: MAMMARY GLAND: CARCINOMA, Dose [Carcinogen]: 50 MG/KG ONCE AT 50 D OF AGE, Promoter: NONE USED
  tumour outcome (control, treated, inhibition, significance): 100%, 68%, 32%, p<0.05
Carcinogen: N-METHYL-N-NITROSOUREA, 684-93-5, 0.2% IN DIET FOR 2 WK BEGINNING 1 WK PRIOR TO CARCINOGEN DOSE (STUDY DURATION: 187 D), Species: RAT, Strain/Sex: SPRAGUE-DAWLEY/FEMALE, Target Tissue: Type of Lesion: MAMMARY GLAND: CARCINOMA, Dose [Carcinogen]: 50 MG/KG ONCE AT 50 D OF AGE, Promoter: NONE USED
  tumour outcome (control, treated, inhibition, significance): 100%, 100%, 0%, not significant
Carcinogen: N-METHYL-N-NITROSOUREA, 684-93-5, 0.2% IN DIET FOR DURATION OF STUDY BEGINNING 1 WK POST CARCINOGEN DOSE (STUDY DURATION: 180 D), Species: RAT, Strain/Sex: SPRAGUE-DAWLEY/FEMALE, Target Tissue: Type of Lesion: MAMMARY GLAND: CARCINOMA, Dose [Carcinogen]: 50 MG/KG ONCE AT 50 D OF AGE, Promoter: NONE USED
  tumour outcome (control, treated, inhibition, significance): 100%, 67%, 33%, p<0.05
Carcinogen: N-METHYL-N-NITROSOUREA, 684-93-5, 0.2% IN DIET FOR DURATION OF STUDY BEGINNING 1 WK PRIOR TO CARCINOGEN DOSE (STUDY DURATION: 187 D), Species: RAT, Strain/Sex: SPRAGUE-DAWLEY/FEMALE, Target Tissue: Type of Lesion: MAMMARY GLAND: CARCINOMA, Dose [Carcinogen]: 50 MG/KG ONCE AT 50 D OF AGE, Promoter: NONE USED
  tumour outcome (control, treated, inhibition, significance): 100%, 48%, 52%, p<0.05
